Experimental data reported in patent publication US20230167088A1, “1-PYRAZINYLPYRAZOLYL-3-OXYALKYL ACIDS AND THEIR DERIVATIVES, AND THEIR USE FOR CONTROL OF UNDESIRED PLANT GROWTH” (BAYER AKTIENGESELLSCHAFT, priority 2020, published 2023).

Assays:
[1] = tested on: AVEFA; experiment: Herbicidal pre-emergence action 2a (greenhouse pots, visual scoring); format: in vivo, Avena fatua; conditions: dosage 320 g/ha, visual scoring after about 3 weeks
Outline: (§1)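 Seeds were sown in pots, covered with soil, and the compound (WP or EC formulation) was sprayed onto the soil surface as an aqueous suspension or emulsion with 0.5% additive at 600 l/ha water, at 320 g/ha and/or 80 g/ha. Greenhouse growth followed for about 3 weeks, then visual scoring against untreated controls.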

[2] = tested on: SETVI; experiment: Herbicidal post-emergence action 1a (greenhouse pots, visual rating); format: in vivo, Setaria viridis; conditions: rated visually about 3 weeks after treatment, 100% = plants have died, 0% = like control plants
Outline: (§2)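 Weeds and crops sown in sandy loam in greenhouse pots were sprayed post-emergence at the one-leaf stage (2–3 weeks after sowing) with WP or EC formulations plus 0.5% additive at 600 l/ha water, 320 and/or 80 g/ha. About 3 weeks later damage was rated visually against untreated controls (0% = no effect, 100% = dead).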

[3] = tested on: ALOMY; experiment: as above; format: in vivo, Alopecurus myosuroides; conditions: rated visually about 3 weeks after treatment, 100% = plants have died, 0% = like control plants
Outline: as §2

[4] = tested on: PHBPU; experiment: Herbicidal pre-emergence action 2a (greenhouse pots, visual scoring); format: in vivo, Pharbitis purpurea; conditions: dosage 320 g/ha, visual scoring after about 3 weeks vs untreated controls
Source text: (§3) [table] a) Seeds of monocotyledonous and dicotyledonous weed plants and crop plants are placed in plastic or organic plant pots and covered with soil. The compounds of the invention, formulated in the form of wettable powders (WP) or as emulsion concentrates (EC), are then applied onto the surface of the covering soil as aqueous suspension or emulsion with addition of 0.5% additive at a water application rate of 600 1/ha (converted). After the treatment, the pots are placed in a greenhouse and kept under good growth conditions for the trial plants. After about 3 weeks, the effect of the preparations is scored visually in comparison with untreated controls as percentages. For example, 100% activity=the plants have died, 0% activity=like control plants. Tables B1 to B15 below show the effects of selected compounds of the general formula (I) according to Tables 1 and 2 on various harmful plants and an application rate corresponding to 320 g/ha and/or 80 g/ha, which were obtained by the experimental procedure mentioned above.

[5] = tested on: VERPE; experiment: Herbicidal post-emergence action 1a (greenhouse pots, visual rating); format: in vivo, Veronica persica; conditions: visual rating about 3 weeks after treatment
Outline: as §2

[6] = tested on: ECHCG; experiment: Herbicidal pre-emergence action 2a (greenhouse pots, visual scoring); format: in vivo, Echinochloa crus-galli; conditions: dosage 320 g/ha, visual scoring after about 3 weeks
Outline: as §1

[7] = tested on: LOLRI; experiment: Herbicidal post-emergence action 1a (greenhouse pots, visual rating); format: in vivo, Lolium rigidum; conditions: Dosage 320 g/ha; rated visually about 3 weeks after treatment; 100% = plants have died, 0% = like control plants
Outline: as §2

[8] = tested on: POLCO; experiment: Herbicidal pre-emergence action 2a (greenhouse pots, visual scoring); format: in vivo, Polygonum convolvulus; conditions: dosage 320 g/ha, visual scoring after about 3 weeks vs untreated controls
Outline: as §1

[9] = tested on: AMARE; experiment: Herbicidal post-emergence action 1a (greenhouse pots, visual rating); format: in vivo, Amaranthus retroflexus; conditions: visual rating about 3 weeks after treatment
Outline: as §2

[10] = tested on: VERPE; experiment: Herbicidal pre-emergence action 2a (greenhouse pots, visual scoring); format: in vivo, Veronica persica; conditions: dosage 320 g/ha, visual scoring after about 3 weeks vs untreated controls
Outline: as §1

[11] = tested on: ECHCG; experiment: Herbicidal post-emergence action 1a (greenhouse pots, visual rating); format: in vivo, Echinochloa crus-galli; conditions: rated visually about 3 weeks after treatment, 100% = plants have died, 0% = like control plants
Outline: as §2

[12] = tested on: ABUTH; experiment: Herbicidal pre-emergence action 2a (greenhouse pots, visual scoring); format: in vivo, Abutilon theophrasti; conditions: dosage 320 g/ha, visual scoring after about 3 weeks vs untreated controls
Source text: as §3

[13] = tested on: ABUTH; experiment: Herbicidal post-emergence action 1a (greenhouse pots, visual rating); format: in vivo, Abutilon theophrasti; conditions: dosage 320 g/ha, visual rating about 3 weeks after treatment
Outline: as §2

[14] = tested on: LOLRI; experiment: Herbicidal pre-emergence action 2a (greenhouse pots, visual scoring); format: in vivo, Lolium rigidum; conditions: dosage 320 g/ha, visual scoring after about 3 weeks vs untreated controls
Outline: as §1

[15] = tested on: MATIN; experiment: as above; format: in vivo, Matricaria inodora; conditions: dosage 320 g/ha, visual scoring after about 3 weeks vs untreated controls
Outline: as §1

[16] = tested on: ALOMY; experiment: as above; format: in vivo, Alopecurus myosuroides; conditions: dosage 320 g/ha, visual scoring after about 3 weeks
Outline: as §1

[17] = tested on: AMARE; experiment: as above; format: in vivo, Amaranthus retroflexus; conditions: dosage 320 g/ha, visual scoring after about 3 weeks vs untreated controls
Outline: as §1

[18] = tested on: PHBPU; experiment: Herbicidal post-emergence action 1a (greenhouse pots, visual rating); format: in vivo, Pharbitis purpurea; conditions: visual rating about 3 weeks after treatment
Outline: as §2

[19] = tested on: AVEFA; experiment: as above; format: in vivo, Avena fatua; conditions: rated visually about 3 weeks after treatment, 100% = plants have died, 0% = like control plants
Outline: as §2

[20] = tested on: SETVI; experiment: Herbicidal pre-emergence action 2a (greenhouse pots, visual scoring); format: in vivo, Setaria viridis; conditions: dosage 320 g/ha, visual scoring after about 3 weeks vs untreated controls
Outline: as §1

[21] = tested on: POLCO; experiment: Herbicidal post-emergence action 1a (greenhouse pots, visual rating); format: in vivo, Polygonum convolvulus; conditions: dosage 320 g/ha, visual rating about 3 weeks after treatment
Outline: as §2

[22] = tested on: STEME; experiment: as above; format: in vivo, Stellaria media; conditions: Dosage 320 g/ha; rated visually about 3 weeks after treatment; 100% = plants have died, 0% = like control plants
Method: (§4) [table] a) Seeds of monocotyledonous and dicotyledonous weeds and crop plants are placed in sandy loam in plastic or organic plant pots, covered with soil and cultivated in a greenhouse under controlled growth conditions. 2 to 3 weeks after sowing, the test plants are treated at the one-leaf stage. The compounds of the invention, formulated in the form of wettable powders (WP) or as emulsion concentrates (EC), are then sprayed onto the green parts of the plants as aqueous suspension or emulsion with addition of 0.5% additive at a water application rate of 600 1/ha (converted). After the test plants have been kept in the greenhouse under optimum growth conditions for about 3 weeks, the activity of the preparations is rated visually in comparison to untreated controls. For example, 100% activity=the plants have died, 0% activity=like control plants. Tables A1 to A15 below show the effects of selected compounds of the general formula (I) according to Tables 1 and 2 on various harmful plants and an application rate corresponding to 320 g/ha and/or 80 g/ha, which were obtained by the experimental procedure mentioned above.

[23] = tested on: HORMU; experiment: as above; format: in vivo, Hordeum murinum; conditions: rated visually about 3 weeks after treatment, 100% = plants have died, 0% = like control plants
Method: as §4

[24] = tested on: POAAN; experiment: Herbicidal pre-emergence action 2b (doubly sown, 1280 g/ha); format: in vivo, Poa annua; conditions: doubly sown pots, dosage 1280 g/ha, visual scoring after about 3 weeks
Outline: (§5)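 Weed seeds sown in sandy loam, two species per pot, covered with soil; compounds as WP or EC applied to soil surface as aqueous suspension/emulsion with 0.5% additive at 600 L/ha water. Greenhouse growth; visual % activity vs untreated controls after about 3 weeks (100% = dead, 0% = like control).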

[25] = tested on: DIGSA; experiment: Herbicidal pre-emergence action 2a (greenhouse pots, visual scoring); format: in vivo, Digitaria sanguinalis; conditions: dosage 320 g/ha, visual scoring after about 3 weeks
Outline: as §1

[26] = tested on: AMARE; experiment: Herbicidal pre-emergence action 2b (doubly sown, 1280 g/ha); format: in vivo, Amaranthus retroflexus; conditions: doubly sown pots, dosage 1280 g/ha, visual scoring after about 3 weeks
Outline: as §5

[27] = tested on: ECHCG; experiment: as above; format: in vivo, Echinochloa crus-galli; conditions: doubly sown pots, dosage 1280 g/ha, visual scoring after about 3 weeks
Outline: as §5

[28] = tested on: VIOTR; experiment: Herbicidal pre-emergence action 2a (greenhouse pots, visual scoring); format: in vivo, Viola tricolor; conditions: dosage 320 g/ha, visual scoring after about 3 weeks vs untreated controls
Outline: as §1

[29] = tested on: MATIN; experiment: Herbicidal pre-emergence action 2b (doubly sown, 1280 g/ha); format: in vivo, Matricaria inodora; conditions: doubly sown pots, dosage 1280 g/ha, visual scoring after about 3 weeks
Outline: as §5

[30] = tested on: STEME; experiment: as above; format: in vivo, Stellaria media; conditions: doubly sown pots, dosage 1280 g/ha, visual scoring after about 3 weeks
Outline: as §5

[31] = tested on: VIOTR; experiment: Herbicidal post-emergence action 1a (greenhouse pots, visual rating); format: in vivo, Viola tricolor; conditions: visual rating about 3 weeks after treatment
Outline: as §2

| Compound | Pre-emergence action against AVEFA in % [1] | Post-emergence action against ALOMY in % ([3]; Dosage 320 g/ha) | Post-emergence action against VERPE in % ([5]; dosage 80 g/ha) | Pre-emergence action against ECHCG in % [6] | Post-emergence action against LOLRI in % [7] | Pre-emergence action against POLCO in % [8] | Post-emergence action against ECHCG in % ([11]; Dosage 80 g/ha) | Post-emergence action against ECHCG in % ([11]; Dosage 320 g/ha) | Pre-emergence action against LOLRI in % [14] | Pre-emergence action against ALOMY in % [16] | Pre-emergence action against AMARE in % [17] | Post-emergence action against AVEFA in % ([19]; Dosage 80 g/ha) | Post-emergence action against AVEFA in % ([19]; Dosage 320 g/ha) | Pre-emergence action against SETVI in % [20] | further results |
| --- | --- | --- | --- | --- | --- | --- | --- | --- | --- | --- | --- | --- | --- | --- | --- |
| O=C(O)COc1nn(-c2cnccn2)c(-c2cncc(F)c2)c1Cl [Example I-92] | 100% | 80% | 80% | 90% | 90% | 90% | 90% | 90% | 100% | 90% | 100% | 90% | 90% | 100% | Post-emergence action against SETVI in % ([2]; Dosage 80 g/ha): 80%; Post-emergence action against SETVI in % ([2]; Dosage 320 g/ha): 80%; Pre-emergence action against PHBPU in % [4]: 90%; Post-emergence action against VERPE in % ([5]; dosage 320 g/ha): 90%; Post-emergence action against AMARE in % ([9]; dosage 80 g/ha): 80%; Post-emergence action against AMARE in % ([9]; dosage 320 g/ha): 90%; Pre-emergence action against VERPE in % [10]: 100%; Pre-emergence action against ABUTH in % [12]: 90%; Post-emergence action against ABUTH in % [13]: 90%; Pre-emergence action against MATIN in % [15]: 100%; Post-emergence action against PHBPU in % ([18]; dosage 80 g/ha): 80%; Post-emergence action against PHBPU in % ([18]; dosage 320 g/ha): 90% |
| COC(=O)COc1nn(-c2cnccn2)c(-c2ccnc(F)c2)c1Br [Example I-09] | 90% | 90% | 90% | 100% | 90% | 100% | 80% | 80% | 90% | 90% | 100% | 90% | 90% | 90% | Post-emergence action against POLCO in % [21]: 100%; Post-emergence action against STEME in % [22]: 80%; Post-emergence action against ALOMY in % ([3]; Dosage 80 g/ha): 80%; Post-emergence action against HORMU in % ([23]; Dosage 80 g/ha): 80%; Post-emergence action against HORMU in % ([23]; Dosage 320 g/ha): 90%; Pre-emergence action at 1280 g/ha against POAAN in % [24]: 100%; Pre-emergence action against DIGSA in % [25]: 100%; Pre-emergence action at 1280 g/ha against AMARE in % [26]: 90%; Pre-emergence action at 1280 g/ha against ECHCG in % [27]: 100%; Pre-emergence action against VIOTR in % [28]: 90%; Pre-emergence action at 1280 g/ha against MATIN in % [29]: 100%; Pre-emergence action at 1280 g/ha against STEME in % [30]: 100%; Post-emergence action against VIOTR in % ([31]; dosage 80 g/ha): 90%; Post-emergence action against VIOTR in % ([31]; dosage 320 g/ha): 90% |
